Data as given in PubChem BioAssay (NCI).
Where “and” joins values, the source holds several entries; their conditions need not be identical. Equal values may be shown once.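 Each compound was tested at five concentrations against cells in 96-well plates for 48 hours. GI50 marks 50% less growth. At the TGI there is no net growth.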

Columns and labels:
Assay in all cases: growth of human tumour cells (NCI), 48 h
CCRF-CEM leukemia = test system: CCRF-CEM leukemia
PC-3 prostate = test system: PC-3 prostate
EKVX NSCLC = test system: EKVX NSCLC
TK-10 renal = test system: TK-10 renal
MOLT-4 leukemia = test system: MOLT-4 leukemia
OVCAR-5 ovarian = test system: OVCAR-5 ovarian
HOP-62 NSCLC = test system: HOP-62 NSCLC
KM12 colon = test system: KM12 colon
NCI-H226 lung = test system: NCI-H226 lung
ACHN renal = test system: ACHN renal

Structure (SMILES)	GI50 (CCRF-CEM leukemia)	TGI (CCRF-CEM leukemia)	GI50 (PC-3 prostate)	TGI (PC-3 prostate)	GI50 (EKVX NSCLC)	TGI (EKVX NSCLC)	GI50 (TK-10 renal)	TGI (TK-10 renal)	GI50 (MOLT-4 leukemia)	TGI (MOLT-4 leukemia)	GI50 (OVCAR-5 ovarian)	TGI (OVCAR-5 ovarian)	GI50 (HOP-62 NSCLC)	TGI (HOP-62 NSCLC)	GI50 (KM12 colon)	TGI (KM12 colon)	GI50 (NCI-H226 lung)	TGI (NCI-H226 lung)	GI50 (ACHN renal)	TGI (ACHN renal)
COC(=O)Nc1nc2ccc(C(=O)c3ccc(N(C)C4COC4)cc3)cc2[nH]1	0.309 µM	> 100 µM	0.379 µM	> 100 µM	0.708 µM	> 100 µM	31.3 µM	> 100 µM	0.672 µM	> 100 µM	0.746 µM	> 100 µM	0.471 µM	> 100 µM	0.36 µM	> 100 µM	1.99 µM	> 100 µM	0.846 µM	> 100 µM
CCn1cc(-c2ccnc3[nH]ccc23)c(-c2cccc(NC(=O)Nc3ccc(OCc4ccccc4)cc3)c2)n1	11.5 µM	> 25 µM	10.6 µM	> 25 µM	21.8 µM	> 25 µM	24.8 µM	> 25 µM	6.85 µM	> 25 µM	22.1 µM	> 25 µM	> 14.9 µM	> 25 µM	7.44 µM	> 25 µM	> 25 µM	> 25 µM	15.2 µM	> 25 µM
C[C@@H](CN1CC(=O)NC(=O)C1)N1CC(=O)NC(=O)C1	–	1840 µM	–	1450 µM	–	546 µM	–	1110 µM	–	821 µM	–	1190 µM	–	328 µM	–	2170 µM	90.7 µM	485 µM	–	753 µM
O=C(O)c1cc2ccccc2oc1=O	–	> 100 µM	–	> 100 µM	–	> 100 µM	–	> 100 µM	–	> 100 µM	–	> 100 µM	–	> 100 µM	–	> 100 µM	–	> 100 µM	–	> 100 µM
CCCCCCCCCc1cc[n+](CC(=O)c2ccc([N+](=O)[O-])cc2)cc1	1.95 µM	5.01 µM	0.552 µM	1.88 µM	0.914 µM	2.55 µM	1.47 µM	2.88 µM	2.1 µM	5.27 µM	1.16 µM	2.52 µM	1.05 µM	2.39 µM	0.569 µM	1.97 µM	0.535 µM	2.15 µM	1.42 µM	2.82 µM
CN1C(=O)[C@@H](NC(=O)[C@H](CCC(F)(F)F)[C@H](CCC(F)(F)F)C(N)=O)N=C(c2ccccc2)c2ccccc21	55 µM	> 100 µM	55.7 µM	> 100 µM	68 µM	> 100 µM	> 100 µM	> 100 µM	27.3 µM	> 100 µM	> 100 µM	> 100 µM	> 100 µM	> 100 µM	> 100 µM	> 100 µM	> 100 µM	> 100 µM	45 µM	> 100 µM
Clc1ccc(C2=Nn3c(nnc3-c3cc(Cl)cc(Cl)c3Cl)SC2)cc1	10.7 µM	26 µM	73.4 µM	> 100 µM	45.1 µM	> 100 µM	15.9 µM	35.9 µM	38.8 µM	> 100 µM	36.7 µM	> 100 µM	14.5 µM	32.5 µM	9.15 µM	> 100 µM	51.9 µM	> 100 µM	15.5 µM	45.5 µM
O=c1c(O)cccc2cc(O)c(O)c(O)c12	7.55 µM	> 100 µM	54.1 µM	> 100 µM	19.1 µM	> 100 µM	55 µM	> 100 µM	16.9 µM	> 100 µM	41.8 µM	> 100 µM	> 100 µM	> 100 µM	26.9 µM	> 100 µM	> 100 µM	> 100 µM	7.82 µM	> 100 µM
N#CSc1c[nH]c2ccc(/C=C/C(=O)/C=C(/C=C/c3ccc4[nH]cc(SC#N)c4c3)OB(F)F)cc12	0.267 µM	4.4 µM	0.241 µM	1.95 µM	0.535 µM	3.53 µM	0.698 µM	14.8 µM	0.306 µM	1.62 µM	2.24 µM	8.68 µM	3.86 µM	38.9 µM	1.02 µM	4.82 µM	2.18 µM	5.62 µM	0.208 µM	0.471 µM
CCN(CC)c1ccc2c(c1)Oc1nc(N)c(C#N)c(N)c1C2Sc1ccc(OC)cc1 (configuration not stated)	1.75 µM	5.47 µM	1.71 µM	3.38 µM	0.479 µM	1.97 µM	2.8 µM	4.33 µM	2.37 µM	6.21 µM	2.04 µM	4.6 µM	1.88 µM	3.43 µM	1.74 µM	3.73 µM	1.82 µM	3.55 µM	1.59 µM	2.94 µM
OC(COc1ccc(F)cc1)Cn1cnc2c(Cl)ncnc21 (configuration not stated)	50.8 µM	> 100 µM	> 100 µM	> 100 µM	> 100 µM	> 100 µM	63.3 µM	> 100 µM	32.5 µM	> 100 µM	> 100 µM	> 100 µM	> 100 µM	> 100 µM	> 100 µM	> 100 µM	> 100 µM	> 100 µM	62.4 µM	> 100 µM
CC(C)CC(=O)Nc1n[nH]c2c1CN(C(=O)C1CCN(C)CC1)C2(C)C	0.95 µM	> 10 µM	1.33 µM	> 10 µM	1.14 µM	> 10 µM	2.81 µM	> 10 µM	0.917 µM	> 10 µM	1.9 µM	> 10 µM	1.2 µM	> 10 µM	0.72 µM	> 10 µM	1.48 µM	> 10 µM	> 10 µM	> 10 µM
Nc1ccccc1NC(=O)c1ccc(CCCC(=O)Nc2ccc(C3CC3N)cc2)cc1 (configuration not stated)	2.63 µM	> 100 µM	2.32 µM	95.3 µM	4.47 µM	> 100 µM	0.36 µM	26.8 µM	1.87 µM	> 100 µM	0.925 µM	37.6 µM	2.01 µM	20.7 µM	3.63 µM	> 100 µM	1.85 µM	69.4 µM	4.3 µM	33.5 µM
COc1cc(Nc2ncc(F)c(Nc3ccc4c(n3)NC(=O)C(C)(C)O4)n2)cc(OC)c1OC	6.32 µM	> 10 µM	> 10 µM	> 10 µM	4.3 µM	> 10 µM	0.677 µM	> 10 µM	3.38 µM and 6.7 µM	> 100 µM	3.85 µM	> 10 µM	1.38 µM and 4.74 µM	> 100 µM	0.366 µM and 0.527 µM	> 100 µM	0.4 µM and 0.393 µM	> 100 µM	0.791 µM and 1.36 µM	> 100 µM
O=C(O)c1cc2ccccc2c(N=Nc2cc(C(F)(F)F)ccc2Cl)c1O	–	> 100 µM	–	> 100 µM	–	> 100 µM	–	> 100 µM	–	> 100 µM	–	> 100 µM	–	> 100 µM	–	> 100 µM	–	> 100 µM	–	> 100 µM
CS(=O)(=O)CCNCc1ccc(-c2ccc3ncnc(Nc4ccc(OCc5cccc(F)c5)c(C(F)(F)F)c4)c3c2)o1	4.8 µM	13.9 µM	4.86 µM	10.8 µM	3.12 µM	9.94 µM	4.65 µM	9.82 µM	3.81 µM	11.1 µM	5.29 µM	15 µM	4.03 µM	8.27 µM	4.06 µM	7.63 µM	3.44 µM	6.75 µM	4.14 µM	8.67 µM
O=Cc1ccc(-c2ccc(-c3nc4ccccc4o3)cc2)s1	5.68 µM	> 100 µM	> 100 µM	> 100 µM	20.3 µM	77 µM	33.6 µM	81.3 µM	21.6 µM	> 100 µM	78.4 µM	> 100 µM	27.9 µM	82 µM	30.3 µM	> 100 µM	31.5 µM	90.2 µM	31.5 µM	> 100 µM
CN(C)C/C=C/C(=O)Nc1cc2c(Nc3ccc(F)c(Cl)c3F)ncnc2cc1OCCOC(F)F	2.47 µM	13.3 µM	1.9 µM	9.09 µM	< 0.0302 µM	3 µM	< 0.01 µM	0.738 µM	1.11 µM	5.43 µM	0.136 µM	13.7 µM	1.31 µM	5.61 µM	2.04 µM	8.23 µM	1.31 µM	4.67 µM	< 0.01 µM	1.08 µM
Cc1nc([C@H]2CC[C@H]3[C@@H]4CCC5=CC(=O)CC[C@]5(C)[C@H]4CC[C@]23C)cs1	7.26 µM	> 100 µM	3.9 µM	> 100 µM	1.65 µM	> 100 µM	3.33 µM	> 100 µM	2.25 µM	> 100 µM	> 100 µM	> 100 µM	> 100 µM	> 100 µM	4.72 µM	> 100 µM	31.7 µM	> 100 µM	7.72 µM	> 100 µM
Fc1ccc(-c2ncn(C3CCNCC3)c2-c2ccnc(Oc3ccc(F)c(F)c3)n2)cc1	> 14.9 µM	24.2 µM	9.05 µM	> 19.9 µM	> 14.6 µM	> 25 µM	5.09 µM	11.1 µM	8.34 µM	> 19.1 µM	7.78 µM	> 25 µM	4.83 µM	9.56 µM	6.71 µM	> 16.2 µM	9.34 µM	> 25 µM	9.9 µM	> 25 µM
C=C1c2[nH]c3ccccc3c2C2C(CC)C1CCN2C (configuration not stated)	–	> 100 µM	–	> 100 µM	–	> 100 µM	–	> 100 µM	–	> 100 µM	–	> 100 µM	–	> 100 µM	–	> 100 µM	–	> 100 µM	–	> 100 µM
Cc1nc(CN2CCCCC2)c(O)c(=O)[nH]1	–	> 100 µM	–	> 100 µM	–	> 100 µM	–	> 100 µM	–	> 100 µM	–	> 100 µM	–	> 100 µM	–	> 100 µM	–	> 100 µM	–	> 100 µM
COc1ccc(/C=C2\CC(C)CC3C2=NN(C(C)=O)C3c2ccc(OC)cc2)cc1 (configuration not stated)	22 µM	> 100 µM	24.2 µM	> 100 µM	27.3 µM	> 100 µM	30.3 µM	> 100 µM	16.1 µM	50.1 µM	21.6 µM	48.2 µM	20 µM	41.4 µM	16.9 µM	46.5 µM	16.5 µM	39.1 µM	17.2 µM	39.3 µM
Cc1cc(O)c(C2=NN(c3ccc(S(N)(=O)=O)cc3)C(c3ccc(N(C)C)cc3)C2)c(C)c1Cl (configuration not stated)	15.1 µM	43.6 µM	9.21 µM	23.9 µM	13.3 µM	36.1 µM	22.1 µM	42.4 µM	12.7 µM	43.2 µM	19.4 µM	38.1 µM	18.6 µM	34.8 µM	13.3 µM	28.3 µM	13.4 µM	29.4 µM	14.9 µM	30.6 µM
COc1ccc(C[C@@H]2NC[C@@H](O)[C@@H]2OC(C)=O)cc1	4.35 µM	–	–	0.255 µM	1.55 µM	–	–	0.254 µM	2.81 µM	–	14.1 µM	> 100 µM	19.3 µM	–	3.53 µM	–	5.27 µM	–	9.5 µM	–
C[C@@H]1Cc2c([nH]c3ccccc23)[C@@H](c2c(F)cc(NC3CN(CCCF)C3)cc2F)N1CC(F)(F)CO	3.44 µM	15.3 µM	2.35 µM	9.67 µM	5.41 µM	19.3 µM	14.4 µM	29.3 µM	3.91 µM	20.6 µM	14.1 µM	27.9 µM	13.6 µM	31.1 µM	4.21 µM	18 µM	7.71 µM	25.8 µM	4.8 µM	17.1 µM
CCN1C2=NCCN2S(=O)(=O)c2ccccc21	–	> 100 µM	–	> 100 µM	–	> 100 µM	–	> 100 µM	–	> 100 µM	–	> 100 µM	–	> 100 µM	–	> 100 µM	–	> 100 µM	–	> 100 µM
